{"source": "patent US20040006136A1", "about": "“Anthelmintics for preventing parasitic infections in human and animals” (priority 2000, published 2004)", "key": {"[1]": {"tested_on": "cercariae of Schistosoma mansoni", "conditions": "Fripp and Armstrong 1973; cited from earlier work"}, "[2]": {"tested_on": "Schistosoma mansoni cercariae", "assay": "Activity against Schistosoma mansoni cercariae (survival/mobility in water)", "format": "cell-based", "conditions": "500 μl/l final concentration of the active compound; PEG300/aquarium water; test period of 120 minutes", "procedure": "Activity Against Schistosoma mansoni cercariae\n[500 μl/l Final Concentration of the Active Compounds]\nSnails (Biomphalaria glabrata) were infected by incubating each of them with 8 miracidia in 10 ml of water overnight. About 6 to 9 weeks after the infection, cercariae were obtained by irradiating the snails, which had been kept in darkness, with light, followed by collection of the swarming cercariae within 2 hours.\nSuch an amount of cercariae-containing water (1 or 2 ml, see below) was added to the test batches that each batch contained about 100 to 150 cercariae.\n5 μl of active compound were mixed thoroughly with 25 μl of PEG300. 9 ml of aquarium water was then added, and the batch was shaken vigorously. After (delayed) addition of 1 ml of cercariae suspension, survival of the cercariae was in each case observed immediately using a stereomagnifier."}, "[3]": {"tested_on": "cercariae of Schistosoma mansoni", "conditions": "topical, monkeys; Bruce et al. 1992; cited from earlier work"}, "[4]": {"tested_on": "cercariae of Schistosoma mansoni", "conditions": "topical agent; Salafsky et al. 1998; cited from earlier work"}}, "data": [{"smiles": "Oc1c(Cl)cc(Cl)c(Cl)c1Cc1c(O)c(Cl)cc(Cl)c1Cl", "note": "[hexachlorophene]", "values": [{"measurement": "effect on cercariae of Schistosoma mansoni", "setting": "[1]", "result": "lethal effect"}]}, {"smiles": "CCCCOC(=O)CN(CCCC)C(C)=O", "values": [{"measurement": "activity of the active compounds against cercariae (classification 0-3)", "setting": "[2]", "result": 1}]}, {"smiles": "O=C(Nc1ccc([N+](=O)[O-])cc1Cl)c1cc(Cl)ccc1O", "note": "[Niclosamide]", "values": [{"measurement": "action against the penetration of cercariae", "setting": "[3]", "result": "acts against the penetration of cercariae"}]}, {"smiles": "CCN(CC)C(=O)c1cccc(C)c1", "note": "[N,N-Diethyl-m-toluamide (DEET), N,N-Diethyl-m-toluamide]", "values": [{"measurement": "action against cercariae of Schistosoma mansoni", "setting": "[4]", "result": "acts against cercariae"}]}]}
